Results: patent publication US20240254119A1 (THIRD HARMONIC BIO, INC., priority 2022, published 2024)

Key:
CYP3A4 = test: Hepatocyte CYP induction assay, CYP3A4 gene expression; type: in vitro ADME; conditions: human hepatocytes
Description: Exemplary compounds were tested for ability to induce CYP3A4 and/or CYP1A2 in hepatocytes. Procedures and results are described below.
Cryopreserved human hepatocytes were purchased from BioIVT (Baltimore, MD, USA), and they were stored in liquid nitrogen before using. The detailed information of hepatocytes is as follows:
Fresh dosing solutions of test compounds, and Rifampicin were prepared in the incubation medium on the day of dosing.
Cryopreserved hepatocytes were thawed and counted to determine yield, viability was measured. Hepatocytes at the concentrations of 0.7 million/mL were transferred to collagen-coated 96-well plates for attachment (0.1 mL viable cells/well). After allowing 4 to 5 hours for attachment of cells, the plating medium was replaced with Incubation Medium containing 2% (v/v) Matrigel™ (sandwich medium) and the hepatocytes were incubated until use.
All incubations were conducted at 37° C., 5% CO2, and saturated humidity.
The sandwich medium was removed and the hepatocytes were treated with incubation solutions containing test articles in vehicle (0.1% DMSO), or positive control for 24 hours after the cultures were established. The incubation solution was aspirated and replaced with incubation solution containing the same concentrations of test articles, vehicle, or positive controls for an additional 24 hours. The total treatment period was 48 hours. Triplicate were used for each concentration of test compound and positive control.
After treatment period of 48 hours, the incubation solution was aspirated. Hepatocytes were washed once with pre-warmed HBSS and incubated with 140 μL of RLT (lysis buffer from Rneasy 96 Kit) supplemented with 1% β-mercaptoethanol. Plates were then stored at ≤−60° C. freezer until RNA analysis.
Before RNA extraction, the frozen plate was thawed and cell lysates were transferred to 96-well plates. RNA isolation was performed using QIAcube HT System. RNA concentration was measured with NanoDrop ND-2000 spectrophotometer. The purity of RNA preparation was calculated by the ratio of the OD260 nm/OD280 nm and the acceptable range is between 1.8 and 2.2. Reverse transcription was performed to obtain cDNA. Quantification of the selective genes by real time quantitative Polymerase Chain Reaction (qPCR) was performed with TaqMan universal PCR Master Mix on the BIO-RAD CFX 384 Touch Real Time PCR System. The following setting were used: 50° C. for 2 minutes, 95° C. for 10 minutes, 40 cycles of 95° C. for 15 seconds and 60° C. for 1 minute. 18S rRNA was used as the internal standard.
To account for variation in RNA yields and reverse transcription polymerase chain reaction (RT-PCR), the gene of interest in all samples was normalized to an internal control gene (18S ribosomal RNA) (Cttarget gene−Ct18S=ΔCt).
The relative quantitation or change in mRNA level of selected genes induced by each test compound was expressed in relation to the vehicle control sample (Δctcompound−ΔCtvehicle=ΔΔCt). Fold changes in gene expression were determined by taking 2 to the power of this value (2^−ΔΔt).
% of positive control [(fold change in treated sample)−1]/[(fold change in positive control)−1]×100

[1] = system: KIT phosphorylation in M-07e cells; test: Cell-based KIT phosphorylation in M-07e cells by pKIT ELISA; parameters: species or system human; conditions: SCF stimulation
Outline: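 Serum-starved M-07e cells (1 × 10^6/mL, overnight) were treated with compounds (8-point 3-fold series from 1 uM) for 2 h at 37 °C, then stimulated with 100 ng/mL SCF for 5 min. Lysate phospho-KIT was captured on anti-phospho-CD117 plates, detected with anti-pY-HRP, and read at 450 nm against a pc-KIT standard curve.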

Kinetic solubility assay = type: physicochemical; conditions: for Solubility (μM): kinetic solubility, 50 mM PB (pH 7.4), shaken 24 hours at RT
Outline: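 Test compounds from 10 mM DMSO stock were diluted in 50 mM phosphate buffer, pH 7.4, and shaken for 24 h at RT. After PTFE filtration and centrifugation, filtrate concentration was quantified by UPLC-UV/HPLC-UV against a standard curve.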

wtKIT = target: T1, wtKIT (Homo sapiens, UniProt P10721); test: HTRF biochemical assay, wtKIT (phosphorylation of a peptide substrate); conditions: Table 4
T1 construct: 1888289AM in the reaction mixtures
T1 sequence (P10721 26-976): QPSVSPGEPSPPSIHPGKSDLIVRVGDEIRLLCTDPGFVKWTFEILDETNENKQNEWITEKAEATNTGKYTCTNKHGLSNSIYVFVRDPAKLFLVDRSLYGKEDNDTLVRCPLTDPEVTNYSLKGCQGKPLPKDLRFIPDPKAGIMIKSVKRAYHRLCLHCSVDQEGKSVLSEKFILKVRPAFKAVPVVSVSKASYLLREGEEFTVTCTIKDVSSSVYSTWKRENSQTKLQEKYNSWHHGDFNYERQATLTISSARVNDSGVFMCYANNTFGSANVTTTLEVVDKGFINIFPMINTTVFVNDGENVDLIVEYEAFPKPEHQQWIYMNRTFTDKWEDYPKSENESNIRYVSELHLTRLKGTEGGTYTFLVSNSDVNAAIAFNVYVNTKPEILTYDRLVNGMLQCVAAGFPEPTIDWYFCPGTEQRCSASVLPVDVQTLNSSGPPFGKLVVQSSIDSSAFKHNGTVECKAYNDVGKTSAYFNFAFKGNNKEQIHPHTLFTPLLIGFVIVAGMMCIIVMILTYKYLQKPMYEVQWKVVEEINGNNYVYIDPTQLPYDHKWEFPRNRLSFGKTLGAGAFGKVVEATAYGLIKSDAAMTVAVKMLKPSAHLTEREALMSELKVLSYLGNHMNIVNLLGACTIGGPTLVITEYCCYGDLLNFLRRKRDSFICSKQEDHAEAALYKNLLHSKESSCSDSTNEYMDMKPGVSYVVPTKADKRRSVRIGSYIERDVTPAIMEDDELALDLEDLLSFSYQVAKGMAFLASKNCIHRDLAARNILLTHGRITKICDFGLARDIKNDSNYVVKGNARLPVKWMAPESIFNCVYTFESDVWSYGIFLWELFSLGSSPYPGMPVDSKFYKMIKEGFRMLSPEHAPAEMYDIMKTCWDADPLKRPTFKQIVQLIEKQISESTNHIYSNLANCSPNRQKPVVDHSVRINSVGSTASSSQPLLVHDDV
Outline: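 wtKIT (5.0 nM) phosphorylating 1 µM FAM-labelled peptide with 400 µM ATP and 10 mM MnCl2 in 100 mM HEPES pH 7.5, 1% DMSO, 3 h at 25 °C. EDTA quench; phosphopeptide detected with anti-phosphotyrosine antibody by HTRF. Enzyme titrated for 10-20% substrate conversion.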

CSF-1R = target: T2, CSF-1R (Homo sapiens, UniProt P07333); test: HTRF biochemical assay, CSF-1R; conditions: Table 4
T2 construct: purchased Invitrogen PV3249 (lot 662393N)
T2 sequence (P07333 20-972): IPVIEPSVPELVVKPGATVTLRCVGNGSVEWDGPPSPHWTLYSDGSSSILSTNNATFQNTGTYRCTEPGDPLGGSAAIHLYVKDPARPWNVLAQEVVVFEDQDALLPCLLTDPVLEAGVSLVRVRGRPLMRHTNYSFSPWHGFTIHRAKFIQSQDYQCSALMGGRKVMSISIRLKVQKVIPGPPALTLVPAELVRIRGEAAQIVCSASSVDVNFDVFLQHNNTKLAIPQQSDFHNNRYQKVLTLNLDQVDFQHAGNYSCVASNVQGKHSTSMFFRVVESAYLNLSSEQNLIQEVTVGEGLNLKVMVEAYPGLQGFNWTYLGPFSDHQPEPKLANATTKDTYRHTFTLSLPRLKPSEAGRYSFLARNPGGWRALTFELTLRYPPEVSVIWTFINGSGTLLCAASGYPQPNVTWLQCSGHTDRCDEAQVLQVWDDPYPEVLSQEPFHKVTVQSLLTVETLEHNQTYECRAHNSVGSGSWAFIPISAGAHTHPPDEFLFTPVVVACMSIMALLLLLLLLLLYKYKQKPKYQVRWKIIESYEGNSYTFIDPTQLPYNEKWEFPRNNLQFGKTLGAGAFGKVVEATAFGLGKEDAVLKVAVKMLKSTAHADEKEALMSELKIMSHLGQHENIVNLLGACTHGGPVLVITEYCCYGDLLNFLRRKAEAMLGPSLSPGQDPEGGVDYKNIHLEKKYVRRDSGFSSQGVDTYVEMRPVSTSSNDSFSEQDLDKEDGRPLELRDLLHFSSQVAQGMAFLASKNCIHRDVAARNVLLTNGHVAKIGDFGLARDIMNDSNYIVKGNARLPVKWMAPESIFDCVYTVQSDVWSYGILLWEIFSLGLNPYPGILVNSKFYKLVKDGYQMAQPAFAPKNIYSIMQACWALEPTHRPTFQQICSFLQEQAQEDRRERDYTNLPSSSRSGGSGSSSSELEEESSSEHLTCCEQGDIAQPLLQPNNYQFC
Description: (§1) Exemplary compounds were tested for ability to inhibit the phosphorylation of a peptide substrate by the tyrosine kinase wt KIT, PDGFRα, or CSF-1R. Assay procedures and results are described below.
(§2) Enzyme, substrate, and cofactors (ATP and Mn^2+) are combined in a well of a microtiter plate and incubated for 3 hours at 25° C. At the end of the incubation, the reaction is quenched by the addition of an EDTA-containing buffer.
(§3) The substrate used in the CSF-1R and PDGFRα assay is FAM-[…]-CONH2 (FAM is carboxyfluorescein). Peptide should be >95% purity. The substrate for the KIT assay is FAM-[…]-NH2.
(§4) • 1. To a well of a 384-wellplate add 5 μL of 2× enzyme buffer (or control). • 2. Add 100 nL of 100× compound. Enzyme and compound may be pre-incubated at this time if desired. • 3. Add 5 μL of 2× substrate buffer. • 4. Incubate plate at 25° C. for 3 hours. • 5. Add 10 uL of anti-phosphotyrosine antibody buffer. • 6. Read plate in BioTek Synergy Reader. Reaction Conditions for wtKIT Assay

PDGFRα = target: T3, PDGFRα (Homo sapiens, UniProt P16234); test: HTRF biochemical assay, PDGFRα; conditions: Table 4, read-out: PDFGRα Biochemical IC50 avg
T3 construct: purchased Millipore 14-467 (lot 26321_ACTI)
T3 sequence (P16234 24-1089): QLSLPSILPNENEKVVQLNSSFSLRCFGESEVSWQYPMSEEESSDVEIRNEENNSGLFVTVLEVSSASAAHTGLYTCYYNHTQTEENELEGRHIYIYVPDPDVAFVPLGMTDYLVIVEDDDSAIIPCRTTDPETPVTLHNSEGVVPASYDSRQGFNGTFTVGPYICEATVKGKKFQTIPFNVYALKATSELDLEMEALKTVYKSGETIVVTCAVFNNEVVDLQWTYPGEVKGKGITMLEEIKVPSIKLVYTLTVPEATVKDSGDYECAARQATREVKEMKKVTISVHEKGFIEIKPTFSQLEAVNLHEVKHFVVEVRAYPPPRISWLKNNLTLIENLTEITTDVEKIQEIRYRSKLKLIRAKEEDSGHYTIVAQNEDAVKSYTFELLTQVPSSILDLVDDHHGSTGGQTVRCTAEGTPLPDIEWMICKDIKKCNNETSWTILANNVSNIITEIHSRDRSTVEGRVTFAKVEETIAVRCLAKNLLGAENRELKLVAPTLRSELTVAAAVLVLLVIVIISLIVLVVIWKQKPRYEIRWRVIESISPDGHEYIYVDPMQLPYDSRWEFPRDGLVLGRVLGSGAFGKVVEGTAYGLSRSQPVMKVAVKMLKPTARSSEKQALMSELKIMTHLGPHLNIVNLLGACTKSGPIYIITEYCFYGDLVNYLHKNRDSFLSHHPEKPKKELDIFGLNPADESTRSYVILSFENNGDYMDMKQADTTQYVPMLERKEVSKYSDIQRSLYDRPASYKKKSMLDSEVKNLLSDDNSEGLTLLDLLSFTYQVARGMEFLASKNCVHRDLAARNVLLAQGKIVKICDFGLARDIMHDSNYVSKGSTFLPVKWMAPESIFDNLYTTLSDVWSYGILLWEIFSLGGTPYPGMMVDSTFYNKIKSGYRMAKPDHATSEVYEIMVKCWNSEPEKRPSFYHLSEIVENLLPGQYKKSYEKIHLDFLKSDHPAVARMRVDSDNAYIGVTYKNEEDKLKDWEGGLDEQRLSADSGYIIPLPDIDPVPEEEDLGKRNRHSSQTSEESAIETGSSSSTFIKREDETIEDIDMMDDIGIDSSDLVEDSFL
Description: as §1, §2, §3, §4

SMILES	CYP 3A4 induction mRNA: Mean fold at 10 μM (CYP3A4; donor four)	IC50 [1]	Solubility (μM) (Kinetic solubility assay)	IC50 (wtKIT)	IC50 (CSF-1R)	IC50 (PDGFRα)	solubility at 24 h (Kinetic solubility assay; phosphate buffer, pH 7.4, aqueous buffer, kinetic from dmso stock)	CYP 3A4 induction mRNA: Mean fold at 10 μM (CYP3A4; donor two)
CCCS(=O)(=O)N1CC(c2nc(-c3ccc(C)c(NC(=O)c4cnc5ccccn45)c3)no2)C1 [Compound C, reference compound]	+++ (induction fold of greater than 3-fold to less than or equal to 10-fold)							
Cc1ccc(-c2noc(C[C@H](C)O)n2)cc1NC(=O)c1cnn2ccccc12 [Compound I-80]		≤ 50 nM	* (a solubility greater than 50 μM)	50 to 500 nM	50 to 500 nM	5000 to 30000 nM		
COC(=O)N1CC(c2nc(-c3ccc(C)c(NC(=O)c4cnn5ccccc45)c3)no2)C1 [Compound B, reference compound]	++ (induction fold of greater than 2-fold to less than or equal to 3-fold)							
Cc1ccc(-c2noc(C3CC(F)(F)C3)n2)cc1NC(=O)c1cnc2ccccn12 [Compound A, reference compound]							≤ 2 µM	+++ (induction fold of greater than 3-fold to less than or equal to 10-fold)
COC(=O)N1CC(c2nc(-c3ccc(C)c(NC(=O)c4cnc5cc(CO)ccn45)c3)no2)C1 [Compound I-120]		≤ 50 nM	**** (a solubility less than or equal to 2 μM)	50 to 500 nM	5000 to 30000 nM	5000 to 30000 nM		
Cc1ccc(-c2noc([C@H]3C[C@@H]3F)n2)cc1NC(=O)c1cnc2cc(F)ccn12 [Compound I-103]		50 to 500 nM	**** (a solubility less than or equal to 2 μM)	≤ 50 nM	≤ 50 nM	500 to 5000 nM		
Cc1ccc(-c2noc([C@H]3C[C@@H]3F)n2)cc1NC(=O)c1cnc2cc(CC(F)(F)F)ccn12 [Compound I-45]	++ (induction fold of greater than 2-fold to less than or equal to 3-fold)		**** (a solubility less than or equal to 2 μM)					
Cc1ccc(-c2noc(C3CC(F)(F)C3)n2)cc1NC(=O)c1cnc2cc(CO)ccn12 [Compound I-105]		50 to 500 nM	**** (a solubility less than or equal to 2 μM)	≤ 50 nM	≤ 50 nM	500 to 5000 nM		
Cc1ccc(-c2noc(C3CC3F)n2)cc1NC(=O)c1cnc2cc(COC3CC(O)C3)ccn12 (stereo not drawn) [Compound I-85]		≤ 50 nM	**** (a solubility less than or equal to 2 μM)	≤ 50 nM	≤ 50 nM	500 to 5000 nM		
Cc1ccc2ncc(C(=O)Nc3cc(-c4noc([C@H]5C[C@@H]5F)n4)ccc3C)n2c1 [Compound I-108]		≤ 50 nM	**** (a solubility less than or equal to 2 μM)	≤ 50 nM	≤ 50 nM	50 to 500 nM		
Cc1ccc(-c2noc(C(O)C3CCC3)n2)cc1NC(=O)c1cnc2ccccn12 (racemic) [Compound I-79]		≤ 50 nM	**** (a solubility less than or equal to 2 μM)	≤ 50 nM	50 to 500 nM	50 to 500 nM		
Cc1ccc(-c2noc([C@H]3C[C@@H]3F)n2)cc1NC(=O)c1cnc2ccc(Cl)cn12 [Compound I-102]		≤ 50 nM	**** (a solubility less than or equal to 2 μM)	≤ 50 nM	≤ 50 nM	500 to 5000 nM		
Cc1ccc(-c2noc([C@H]3C[C@@H]3F)n2)cc1NC(=O)c1cnn2cc(F)ccc12 [Compound I-101]		50 to 500 nM	**** (a solubility less than or equal to 2 μM)	≤ 50 nM	50 to 500 nM	5000 to 30000 nM		
COc1ccn2c(C(=O)Nc3cc(-c4noc(C5COC5)n4)ccc3C)cnc2c1 [Compound I-51]	++ (induction fold of greater than 2-fold to less than or equal to 3-fold)		**** (a solubility less than or equal to 2 μM)					
Cc1ccc(-c2noc(C(O)C3CC3)n2)cc1NC(=O)c1cnc2ccccn12 (racemic) [Compound I-78]		≤ 50 nM	**** (a solubility less than or equal to 2 μM)	≤ 50 nM	50 to 500 nM	500 to 5000 nM		
Cc1ccc(-c2noc(C3CC3F)n2)cc1NC(=O)c1cnc2cc(COC3CC(O)C3)ccn12 (mixture of isomers) [Compound I-72]		≤ 50 nM	**** (a solubility less than or equal to 2 μM)	≤ 50 nM	≤ 50 nM	500 to 5000 nM		
Cc1ccc(-c2noc(CC(O)C(F)F)n2)cc1NC(=O)c1cnn2ccccc12 (single isomer, unassigned) [Compound I-39]	++ (induction fold of greater than 2-fold to less than or equal to 3-fold)		**** (a solubility less than or equal to 2 μM)					
Cc1ccc(-c2noc(CC(O)C(F)F)n2)cc1NC(=O)c1cnn2ccccc12 (single isomer, unassigned) [Compound I-75]		≤ 50 nM	**** (a solubility less than or equal to 2 μM)	≤ 50 nM	50 to 500 nM	500 to 5000 nM		
Cc1ccc(-c2noc(C[C@@H](C)O)n2)cc1NC(=O)c1cnn2ccccc12 [Compound I-81]		≤ 50 nM	** (a solubility greater than 10 μM and less than or equal to 50 μM)	50 to 500 nM	500 to 5000 nM	5000 to 30000 nM		
Cc1ccc(-c2noc([C@H]3C[C@@H]3F)n2)cc1NC(=O)c1cnc2ccc(OC(C)C)cn12 [Compound I-86]		≤ 50 nM	**** (a solubility less than or equal to 2 μM)	≤ 50 nM	≤ 50 nM	50 to 500 nM		
Cc1ccc(-c2noc([C@@H]3CC(F)(F)CN3)n2)cc1NC(=O)c1cnc2cc(COCCO)ccn12 [Compound I-111]		≤ 50 nM	* (a solubility greater than 50 μM)	≤ 50 nM	50 to 500 nM	50 to 500 nM		
COc1ccn2c(C(=O)Nc3cc(-c4noc(C[C@@H](C)O)n4)ccc3C)cnc2c1 [Compound I-95]		≤ 50 nM	**** (a solubility less than or equal to 2 μM)	≤ 50 nM	50 to 500 nM	500 to 5000 nM		
